In patent publication US11235023B2, “Beta-hairpin peptidomimetic with elastase inhibitory activity and aerosol dosage forms thereof” (POLYPHOR AG, priority 2016, dated 2022):
Non-standard residues stand in square brackets, D forms with d. Residues, ends and D or L forms follow the SMILES beside them. Gly(octyl) = CCCCCCCC[C@H](N)C(=O)O

Key:
[1] = GLP-compliant 28-day inhalation toxicity study in rats; format: in vivo, rat
Experimental: In a GLP-compliant 28-day inhalation toxicity study in rats, conducted by Charles River Laboratories Preclinical Services, Tranent, Edinburgh, UK, the formulation described in Example 2 and dilutions thereof as well as the vehicle were administered using the Pari eFlow® XL 30 nebulizer device (Pari Pharma, Starnberg, Germany) for 100 min per day for 28 days, followed by a 2-week recovery period. […] Ten animals were used for the main toxicity study, and 5 additional animals for the recovery phase. Parameters assessed included clinical signs, body weights, food consumption, ophthalmic examination, clinical pathology, gross necropsy findings, organ weights and histopathologic examinations. […] This was associated with reduction in food consumption in treated animals. There was a good recovery in body weight gain during the recovery period between day 28 and 42.

[2] = target: T1, human neutrophil elastase (Homo sapiens, UniProt P08246); test: Phase-Ib study in CF patients, active neutrophil elastase in sputum by FRET assay; format: in vivo
T1 construct: from tissue; host or cells: spontaneous sputum of patients with cystic fibrosis (PBS-soluble fraction)
T1 sequence (P08246 30-267): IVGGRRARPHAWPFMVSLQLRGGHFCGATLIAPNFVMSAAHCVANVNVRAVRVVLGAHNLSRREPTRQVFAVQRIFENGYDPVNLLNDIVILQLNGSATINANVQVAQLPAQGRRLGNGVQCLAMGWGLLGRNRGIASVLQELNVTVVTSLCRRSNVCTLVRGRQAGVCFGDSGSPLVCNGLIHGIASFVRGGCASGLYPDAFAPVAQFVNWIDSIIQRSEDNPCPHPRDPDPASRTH
Experimental: The pharmacodynamic effect of ascending single doses of active compound was investigated by evaluation of neutrophil elastase (NE) activity in sputum using FRET (fluorescence resonance energy transfer) assay after PBS aliquotation and freezing.
On the day of screening, if possible, for baseline assessment of NE activity, on Day −1 as soon as possible after the subject's arrival at the study site for baseline assessment of NE activity, on Day 1 in the period of time between 1 h and 3 h after start of inhalation, and in the morning of Day 2, at approx. 24 h after start of inhalation.
Spontaneous sputum samples were collected in polystyrene Petri dishes and put on ice immediately. All processing steps had to be performed with cold reagents and on ice whenever possible. Plugs were separated from saliva, but the latter was not discarded. If a sputum sample was taken for both PK and NE activity in sputum analysis, the plug was split in 2 approximately equal parts. One part was processed for evaluation of NE activity in sputum the other one for PK analysis, as described above.
For evaluation of NE activity in sputum, at first, the weight of the sputum sample was determined and 8 mL cold phosphate-buffered saline (PBS) per gram purified sputum was added. The sample was vortexed for 30 s at room temperature (15-24° C.). Then, the soluble fraction was separated from the sputum pellet by centrifugation (10 min at 1000×g and 4° C.). The supernatant was transferred to a fresh tube.
Remaining insoluble particles were separated by a second centrifugation step at 3500×g for 15 min at 4° C. If the supernatant was not aliquoted immediately, the PBS/sputum supernatant was transferred to a fresh tube.
10 aliquots of 50 μL PBS/sputum were transferred into transfer tubes for evaluation. Moreover, 4 aliquots of 50 μL PBS/sputum were transferred into transfer tubes as backup. In case there was a leftover, the remaining volume was immediately transferred into a transfer tube for evaluation. Any leftover exceeding 2.0 mL was discarded.
The NE activity in sputum was evaluated by using a FRET elastase assay adapted from an assay described in Nature Protocols, 2008, 3, 991 (B. Korkmaz, S. Attucci, M. A. Juliano et al.) and validated by MLM Medical Labs GmbH, Mönchengladbach, Germany.
The assay is based on the reaction of human neutrophil elastase with the substrate 2Abz-Ala-Pro-Glu-Glu-Ile-Met-Arg-Arg-Gln-Tyr(3NO2)—OH (GeneCust Europe S. A., Ellange, Luxembourg, #P160301-SY452824). By adding the substrate solution the enzyme reaction is started and the elastase present in the samples reacts with added substrate. The product of the reaction is detected through fluorescence measurement and the initial reaction velocity is determined. The concentration of active elastase in the unknown samples is back-calculated using the calibration curve calculated from the standards.
An elastase reference stock solution (human neutrophil elastase [ELA2], Höltzel Diagnostika, Köln, Germany, #PN31255) with known enzymatic activity was prepared. The exact active elastase enzyme concentration was determined by titration against an alpha 1-antitrypsin solution (Athens Research and Technology, Athens, USA, #16-16-011609), with a defined concentration. The active elastase reference stock solution was adjusted by addition of PBS to a concentration of 3000 nM and aliquots were stored at −80° C.
The FRET assay was performed in 96 well white microtiter plates in total volume of 100 μL per well. PBS sputum dilutions of 1:5, 1:50 and 1:100 in elastase reaction buffer (50 mM HEPES, pH 7.4, 750 mM NaCl, 0.05% [v/v] NP-40) were prepared, 5 uL loaded per well and 90 uL elastase reaction buffer were added. A 5 mM substrate stock solution of 2Abz-Ala-Pro-Glu-Glu-Ile-Met-Arg-Arg-Gln-Tyr(3NO2)—OH in 30% (v/v) N,N-dimethylformamide/water was prepared and further diluted to 400 nM by addition of elastase reaction buffer. […]

SMILES: CCCCCCCC[C@@H]1NC(=O)[C@@H]2CCCN2C(=O)[C@H]2CCCN2C(=O)[C@H](Cc2ccc(O)cc2)NC(=O)[C@H](CCCCN)NC(=O)[C@H](CCC(N)=O)NC(=O)[C@@H]2CCCN2C(=O)[C@@H]2CCCN2C(=O)[C@H]([C@@H](C)CC)NC(=O)[C@H](CO)NC(=O)[C@H](C)NC(=O)[C@H]([C@@H](C)O)NC(=O)[C@H](CCC(=O)O)NC1=O [active compound, cyclo(-OctG-Glu-Thr-Ala-Ser-Ile-Pro-Pro-Gln-Lys-Tyr-^DPro-Pro-)] (cyclo([Gly(octyl)]ETASIPPQKY[dP]P))
- NOAEL at 28 days ([1]; in vivo, inhaled or intranasal, rat, inhalation 100 min per day for 28 days, read-out: No Observed Adverse Effect Level (NOAEL)): 119 mg/kg/day
- Body weight gain ([1]; male rats at 119 mg/kg/day vs vehicle control): Slightly reduced
- Clinical signs and ophthalmic findings ([1]; rat, 11, 53 and 119 mg/kg/day): no clinical signs or ophthalmic findings
- Clinical pathology (haematology, coagulation, clinical chemistry, urinalysis) ([1]; rat, in vivo): no findings in clinical pathology
- Histopathology of the larynx ([1]; rat, in vivo): focal minimal squamous metaplasia without cellular atypia of dysplasia
- Histopathology of the lungs ([1]; rat, in vivo): minimal to moderate multifocal alveolar macrophage accumulation
- Mean concentration of active NE in sputum after single-dose inhalation ([2]; CF patients, 80-320 mg, extent independent of dose): strongly decreased
- Mean concentration of active NE in sputum at 24 h after inhalation ([2]; CF patients, high data variability): returned to baseline levels
- Mean (SD) concentration of active NE in sputum ([2]; dose level 1 (80 mg), 1-3 h after inhalation, predose 18823.6 (19758.72)): 612.5 (1218.62) ng/mL
- Mean (SD) concentration of active NE in sputum ([2]; dose level 1 (80 mg), 24 h after inhalation): 1467.7 (2154.43) ng/mL
- Mean (SD) concentration of active NE in sputum ([2]; dose level 2 (160 mg), 1-3 h after inhalation, predose 9548.7 (6222.55)): 115.0 (0.00) ng/mL
- Mean (SD) concentration of active NE in sputum ([2]; dose level 2 (160 mg), 24 h after inhalation): 16849.4 (23518.56) ng/mL
- Mean (SD) concentration of active NE in sputum ([2]; dose level 3 (320 mg), 1-3 h after inhalation, predose 10480.7 (10528.00)): 115.0 (0.00) ng/mL
- Mean (SD) concentration of active NE in sputum ([2]; dose level 3 (320 mg), 24 h after inhalation): 7712.5 (11394.04) ng/mL
- Inhibition of active elastase in sputum ([2]; over several hours after single dose, all dose groups (FIG. 5)): > 90%
